Laboratory results taken from paper PMC6002473, “An Evolutionarily Conserved Structural Platform for PRC2 Inhibition by a Class of Ezh2 Inhibitors” (Scientific Reports, 2018).

Target: T1, ctEzh2 (ctPRC2) (Thermochaetoides thermophila, UniProt G0SDW4)
T1 construct: gene EZH2; Fusion of Ezh2 (residues 191–950) and the VEFS domain of Suz12 (residues 530–691), and full length Eed (residues 1–565); with Eed, Suz12(VEFS)
T1 sequence (G0SDW4 191-950): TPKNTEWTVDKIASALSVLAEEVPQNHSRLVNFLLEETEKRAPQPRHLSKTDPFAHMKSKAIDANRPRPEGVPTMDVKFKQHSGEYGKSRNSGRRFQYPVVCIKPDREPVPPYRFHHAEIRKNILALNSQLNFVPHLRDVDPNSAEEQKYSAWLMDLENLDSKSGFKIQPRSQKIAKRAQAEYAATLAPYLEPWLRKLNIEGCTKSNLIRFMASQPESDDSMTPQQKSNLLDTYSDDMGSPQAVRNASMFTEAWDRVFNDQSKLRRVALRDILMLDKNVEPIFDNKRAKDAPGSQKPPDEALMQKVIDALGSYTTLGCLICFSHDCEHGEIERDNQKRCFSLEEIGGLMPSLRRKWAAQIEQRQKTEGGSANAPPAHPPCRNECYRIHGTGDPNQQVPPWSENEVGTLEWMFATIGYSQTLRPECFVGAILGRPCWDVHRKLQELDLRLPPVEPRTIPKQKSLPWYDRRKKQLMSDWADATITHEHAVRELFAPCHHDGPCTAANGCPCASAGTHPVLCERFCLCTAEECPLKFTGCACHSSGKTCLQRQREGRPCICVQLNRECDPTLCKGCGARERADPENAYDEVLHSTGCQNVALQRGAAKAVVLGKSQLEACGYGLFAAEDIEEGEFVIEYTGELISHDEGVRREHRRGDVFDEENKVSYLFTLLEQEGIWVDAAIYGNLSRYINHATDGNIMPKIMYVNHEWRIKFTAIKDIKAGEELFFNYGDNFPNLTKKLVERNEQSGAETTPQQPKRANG
T1 sequence (G0S8H7 1-565 partner): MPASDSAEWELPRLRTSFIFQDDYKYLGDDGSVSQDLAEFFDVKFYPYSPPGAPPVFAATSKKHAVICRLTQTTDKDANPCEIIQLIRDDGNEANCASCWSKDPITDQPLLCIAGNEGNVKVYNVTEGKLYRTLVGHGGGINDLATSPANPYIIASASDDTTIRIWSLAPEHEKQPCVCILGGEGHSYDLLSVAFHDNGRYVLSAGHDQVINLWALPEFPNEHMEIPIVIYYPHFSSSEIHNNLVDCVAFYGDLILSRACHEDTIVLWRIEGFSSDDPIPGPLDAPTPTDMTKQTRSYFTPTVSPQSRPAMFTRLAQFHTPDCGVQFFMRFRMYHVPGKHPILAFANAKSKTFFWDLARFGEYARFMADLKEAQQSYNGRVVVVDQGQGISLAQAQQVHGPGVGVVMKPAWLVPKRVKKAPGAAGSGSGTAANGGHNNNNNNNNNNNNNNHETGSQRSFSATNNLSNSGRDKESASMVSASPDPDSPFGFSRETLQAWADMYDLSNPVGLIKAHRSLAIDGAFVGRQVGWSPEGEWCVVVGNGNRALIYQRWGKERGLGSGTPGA
T1 sequence (G0RYC6 530-691 partner): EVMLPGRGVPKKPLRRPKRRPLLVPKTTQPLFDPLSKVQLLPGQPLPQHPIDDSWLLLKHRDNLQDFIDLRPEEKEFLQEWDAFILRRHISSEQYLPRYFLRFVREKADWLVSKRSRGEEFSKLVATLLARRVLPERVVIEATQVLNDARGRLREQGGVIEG
Assay: co-crystal structure ([…] Å, soaked); radiometric methyltransferase IC50
Type: biochemical

CC[C@H](C)n1cc(C)c2c(C(=O)NCc3c(C)cc(C)[nH]c3=O)cc(-c3ccc(N4CCNCC4)nc3)cc21 [GSK126]
IC50: ~100 µM
